Assay results from patent US20040039554A1, “Iterative analysis of non-responding population in the design of pharmacogenetic studies” (priority 2000, published 2004).
Counter-ions that a name gives are not always drawn.

Key:
[1] = test system: female patients with IBS (non-constipated); assay: Relief of IBS symptoms in double-blind, placebo controlled clinical trials of alosetron, stratified by 5HTT genotype; type: in vivo, human; settings: in each of the three 5HTT genotypes
Text: FIG. 1 is a graph based on data collected from female patients enrolled in clinical trials of alosetron for the treatment of IBS. The study population was comprised of non-constipated individuals with IBS. The subjects were divided into 5HTT genotypes. Of the 219 subjects, 71(32.4%) were genotype del/del (deletion/deletion, alternatively denoted as “1/1”) 5HTT, 75 (34.2%) were genotype del/ins (deletion/insertion, alternatively denoted as “1/2”) 5HTT and 73 (33.3%) were genotype ins/ins (insert/insert, alternatively denoted as “2/2”) 5HTT. […] “Response” was defined as relief of IBS symptoms (abdominal pain and discomfort) during six weeks of a twelve week treatment study. Two hundred and nineteen subjects, received either alosetron (102 subjects) or matched placebo (117 subjects). The proportion of patients achieving response following treatment with alosetron was 68% (21/31) for del/del 5HTT, 64% (21/33) for del/ins 5HTT and 58% (22/38) for ins/ins 5HTT. The proportion of patients achieving response following treatment with placebo was 58% (23/40) for del/del 5HTT, 38% (16/42) for del/ins 5HTT and 34% (12/35) for ins/ins 5HTT. […]
The subjects' response to alosetron in the clinical trial setting was reviewed and correlated with genotype. […] The incidence of various other effects, including constipation, was also recorded. […]

[2] = test system: patients with Irritable Bowel Syndrome (IBS); settings: double blind, placebo controlled studies; cited from earlier work

In the case of `Cc1[nH]cnc1CN1CCc2c(c3ccccc3n2C)C1=O` [alosetron, Alosetron hydrochloride], the “effectiveness compared with placebo in relieving IBS symptoms” value [1] is listed as “more effective than placebo” and the “effect on pain and bowel function in patients with IBS” value [2] is listed as “reduce pain and improve bowel function”.
